What was measured:
[1] = tested on: Advillin^Cre and Mecp^2f/y mice and control littermates; test: Magnitude of startle response to a 125 dB noise; assay type: in vivo; settings: i.p., 2 mg/kg vs saline, all mice
Method: FIG. 3 is a graph showing magnitude of startle response to a 125 dB noise in mice following i.p. administration of either saline or 2 mg/kg midazolam treatment. Responses are expressed as percent of startle response to a 125 dB noise. Two-way ANOVA with post-hoc Sidak's test, *, p<0.05.

[2] = tested on: Advillin^Cre and Mecp^2f/y mice and control littermates; test: Tactile prepulse inhibition (PPI): startle response to a 125 dB noise preceded by a light air puff; assay type: in vivo; settings: i.p., 2 mg/kg vs saline, both Mecp2 mutants and controls
Method: FIG. 1 is a graph showing percent inhibition of the startle response to a 125 dB noise, when the startle noise is preceded by a light air puff in mice following i.p. administration of either saline or 2 mg/kg midazolam treatment. Two-way ANOVA with post-hoc Sidak's test, *, p<0.05.

Cc1ncc2n1-c1ccc(Cl)cc1C(c1ccccc1F)=NC2 [midazolam]
sedation ([1]; evidenced by startle amplitude): caused significant sedation
reduction in startle amplitude ([1]; startle to 125 dB noise): ~50%
tactile sensitivity (percent inhibition of the startle response to a 125 dB noise when preceded by a light air puff, tactile PPI) [2]: significantly attenuated tactile sensitivity
